Test results from patent publication US11046649B2, “Compounds useful as inhibitors of indoleamine 2,3-dioxygenase and/or tryptophan dioxygenase” (Board of Regents, The University of Texas System, priority 2018, dated 2021).

Target: T1, IDO1 (Homo sapiens, UniProt P14902)
T1 construct: endogenous in cells; host or cells: HeLa cells (ATCC), IDO1 induced with 10 ng/mL IFNgamma
Experiment: IDO1 cell-based assay
Settings: HeLa cells, 10 ng/mL IFNgamma, 24 hours with test compound; N-Formyl Kynurenine and L-tryptophan quantified by RFMS

T1 sequence (P14902 whole entry): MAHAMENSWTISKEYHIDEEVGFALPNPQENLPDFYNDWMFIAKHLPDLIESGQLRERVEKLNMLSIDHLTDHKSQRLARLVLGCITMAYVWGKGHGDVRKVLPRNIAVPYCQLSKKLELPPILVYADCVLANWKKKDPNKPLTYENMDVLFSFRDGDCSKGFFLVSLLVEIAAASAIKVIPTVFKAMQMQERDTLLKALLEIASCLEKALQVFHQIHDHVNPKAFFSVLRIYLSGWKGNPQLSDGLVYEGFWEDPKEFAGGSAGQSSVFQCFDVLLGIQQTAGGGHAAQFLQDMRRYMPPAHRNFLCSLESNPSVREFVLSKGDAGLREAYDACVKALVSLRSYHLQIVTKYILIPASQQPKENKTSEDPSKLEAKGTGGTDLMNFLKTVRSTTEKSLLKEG

| Molecule | IC50 [nM] |
| --- | --- |
| CC(C(=O)Nc1cnc(Br)cn1)[C@H]1[C@@H]2C[C@@H](n3cnc4cc(F)c(F)cc43)C[C@@H]21 (stereo partly drawn) [Example 57, N-(5-bromopyrazin-2-yl)-2-((1R,3s,5S,6r)-3-(5,6-difluoro-1H-benzo[d]-imidazol-1-yl)bicyclo-[3.1.0]hexan-6-yl)-propanamide] | 2.4 |
| Cc1ncc(-c2ccc(NC(=O)[C@@H](C)[C@H]3[C@@H]4C[C@@H](n5cnc6cc(F)c(F)cc65)C[C@@H]43)cc2)cn1 [Example 66, (S)-2-((1R,3R,5S,6r)-3-(5,6-difluoro-1H-benzo[d]-imidazol-1-yl)bicyclo-[3.1.0]hexan-6-yl)-N-(4-(2-methylpyrimidin-5-yl)-phenyl)propanamide] | 1140 |
| Cc1cc2ccc(NC(=O)C(C)[C@H]3[C@@H]4C[C@@H](n5cnc6cc(F)c(F)cc65)C[C@@H]43)cc2[nH]1 (stereo partly drawn) [Example 52, 2-((1R,3s,5S,6r)-3-(5,6-difluoro-1H-benzo[d]-imidazol-1-yl)bicyclo-[3.1.0]hexan-6-yl)-N-(2-methyl-1H-indol-6-yl)-propanamide] | 23.9 |
| CC(C(=O)NCC(F)(F)F)[C@H]1[C@@H]2C[C@@H](n3cnc4cc(F)c(F)cc43)C[C@@H]21 (stereo partly drawn) [Example 44, 2-((1R,3s,5S,6r)-3-(5,6-difluoro-1H-benzo[d]-imidazol-1-yl)bicyclo-[3.1.0]hexan-6-yl)-N-(2,2,2-trifluoroethyl)-propanamide] | 6760 |
| CC(C(=O)Nc1cnn(C(F)F)c1)[C@H]1[C@@H]2C[C@@H](n3cnc4cc(F)c(F)cc43)C[C@@H]21 (stereo partly drawn) [Example 47, 2-((1R,3s,5S,6r)-3-(5,6-difluoro-1H-benzo[d]-imidazol-1-yl)bicyclo-[3.1.0]hexan-6-yl)-N-(1-(difluoromethyl)-1H-pyrazol-4-yl)propanamide] | 14 |
| CC(C(=O)Nc1cnn(-c2ccccc2)c1)[C@H]1[C@@H]2C[C@@H](Oc3ccnc4ccc(F)cc34)C[C@@H]21 (stereo partly drawn) [Example 143, 2-((1R,3s,5S,6r)-3-((6-fluoroquinolin-4-yl)-oxy)bicyclo[3.1.0]hexan-6-yl)-N-(1-phenyl-1H-pyrazol-4-yl)propanamide] | 2.77 |
| CC(C(=O)Nc1ccc(C(F)(F)F)cn1)[C@H]1[C@@H]2C[C@@H](n3cnc4cc(F)c(F)cc43)C[C@@H]21 (stereo partly drawn) [Example 18, 2-((1R,3s,5S,6r)-3-(5,6-difluoro-1H-benzo[d]-imidazol-1-yl)bicyclo-[3.1.0]hexan-6-yl)-N-(5-(trifluoromethyl)pyridin-2-yl)propanamide] | 4.8 |
| C[C@H](C(=O)Nc1ccc(-c2ccc(F)cn2)cc1)[C@H]1[C@@H]2C[C@@H](n3cnc4cc(F)c(F)cc43)C[C@@H]21 [Example 85, (S)-2-((1R,3R,5S,6r)-3-(5,6-difluoro-1H-benzo[d]-imidazol-1-yl)bicyclo-[3.1.0]hexan-6-yl)-N-(4-(5-fluoropyridin-2-yl)phenyl)-propanamide] | 1910 |
| CC(C(=O)Nc1nnc(C(F)(F)F)[nH]1)[C@H]1[C@@H]2C[C@@H](Oc3ccnc4ccc(F)cc34)C[C@@H]21 (stereo partly drawn) [Example 74, 2-((1R,3s,5S,6r)-3-((6-fluoroquinolin-4-yl)oxy)-bicyclo[3.1.0]hexan-6-yl)-N-(5-(trifluoromethyl)-4H-1,2,4-triazol-3-yl)-propanamide] | 156 |
| N#Cc1ccc(NC(=O)C(C2CC2)[C@H]2[C@@H]3C[C@@H](Oc4ccnc5ccc(F)cc45)C[C@@H]32)nc1 (stereo partly drawn) [Example 121, N-(5-cyanopyridin-2-yl)-2-cyclopropyl-2-((1R,3s,5S,6r)-3-((6-fluoroquinolin-4-yl)-oxy)bicyclo[3.1.0]hexan-6-yl)acetamide] | 1.67 |
| C[C@H](C(=O)Nc1ccc(-c2ccc(C(F)(F)F)nc2)cc1)[C@H]1[C@@H]2C[C@@H](n3cnc4cc(F)c(F)cc43)C[C@@H]21 [Example 86, (S)-2-((1R,3R,5S,6r)-3-(5,6-difluoro-1H-benzo[d]-imidazol-1-yl)bicyclo-[3.1.0]hexan-6-yl)-N-(4-(6-(trifluoromethyl)pyridin-3-yl)phenyl)propanamide] | 568 |
| Cc1cnc(NC(=O)C(C)[C@H]2[C@@H]3C[C@@H](n4cnc5cc(F)c(F)cc54)C[C@@H]32)cn1 (stereo partly drawn) [Example 53, 2-((1R,3s,5S,6r)-3-(5,6-difluoro-1H-benzo[d]-imidazol-1-yl)bicyclo-[3.1.0]hexan-6-yl)-N-(5-methylpyrazin-2-yl)-propanamide] | 10.5 |
| C[C@H](C(=O)Nc1ccc(-c2ccc(C#N)nc2)cc1)[C@H]1[C@@H]2C[C@@H](n3cnc4cc(F)c(F)cc43)C[C@@H]21 [Example 79, (S)-N-(4-(6-cyanopyridin-3-yl)phenyl)-2-((1R,3R,5S,6r)-3-(5,6-difluoro-1H-benzo[d]-imidazol-1-yl)bicyclo-[3.1.0]hexan-6-yl)-propanamide] | 878 |
| N-(5-cyanopyridin-2-yl)-2- ((1R,3s,5S,6r)-3-((6- fluoroquinolin-4-yl)oxy)- bicyclo[3.1.0]hexan-6-yl)- propanamide [Example 58] | 2 |
| CC(C(=O)NC1CC(F)C1)[C@H]1[C@@H]2C[C@@H](n3cnc4cc(F)c(F)cc43)C[C@@H]21 (stereo partly drawn) [Example 25, 2-((1R,3s,5S,6r)-3-(5,6-difluoro-1H-benzo[d]-imidazol-1-yl)bicyclo-[3.1.0]hexan-6-yl)-N-(3-fluorocyclobutyl)-propanamide] | 3420 |
| CC(C(=O)Nc1ccn(CC(F)(F)F)n1)[C@H]1[C@@H]2C[C@@H](Oc3ccnc4ccc(F)cc34)C[C@@H]21 (stereo partly drawn) [Example 105, 2-((1R,3s,5S,6r)-3-((6-fluoroquinolin-4-yl)oxy)-bicyclo[3.1.0]hexan-6-yl)-N-(1-(2,2,2-trifluoroethyl)-1H-pyrazol-3-yl)-propanamide] | 17.9 |
| O=C(O)C(C1CC1)[C@H]1[C@@H]2C[C@@H](Oc3ccnc4ccc(F)cc34)C[C@@H]21 (stereo partly drawn) [Example 127, 2-cyclopropyl-2-((1R,3s,5S,6r)-3-((6-fluoroquinolin-4-yl)oxy)-bicyclo[3.1.0]hexan-6-yl)acetic acid] | 6310 |
| CC(C(=O)NC12CC(CC#N)(C1)C2)[C@H]1[C@@H]2C[C@@H](Oc3ccnc4ccc(F)cc34)C[C@@H]21 (stereo partly drawn) [Example 8, N-(3-(cyanomethyl)bicyclo[1.1.1]pentan-1-yl)-2-((1R,3s,5S,6r)-3-((6-fluoroquinolin-4-yl)-oxy)bicyclo[3.1.0]hexan-6-yl)propanamide] | 51.3 |
| COc1ccc(NC(=O)C(C)[C@H]2[C@@H]3C[C@@H](n4cnc5cc(F)c(F)cc54)C[C@@H]32)nc1 (stereo partly drawn) [Example 27, 2-((1R,3s,5S,6r)-3-(5,6-difluoro-1H-benzo[d]-imidazol-1-yl)bicyclo-[3.1.0]hexan-6-yl)-N-(5-methoxypyridin-2-yl)-propanamide] | 6.63 |
| CC(C(=O)NC12CC(c3ccc(F)cc3)(C1)C2)[C@H]1[C@@H]2C[C@@H](n3cnc4cc(F)c(F)cc43)C[C@@H]21 (stereo partly drawn) [Example 39, 2-((1R,3s,5S,6r)-3-(5,6-difluoro-1H-benzo[d]-imidazol-1-yl)bicyclo-[3.1.0]hexan-6-yl)-N-(3-(4-fluorophenyl)bicyclo-[1.1.1]pentan-1-yl)-propanamide] | 12.9 |
